Source: PubChem BioAssay (NCI)
Where “and” joins values, the source holds several entries; their conditions need not be identical. Equal values may be shown once.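 Interpolation was linear, between the two tested concentrations surrounding the appropriate level; five concentrations were tested over 48 hours in 96-well plates. The concentration for 50% growth inhibition is given as GI50. TGI marks complete inhibition of growth.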

Key:
Experiment in all cases: DTP human tumour cell line panel, 48 h
[1] = test system: NCI-H460 lung
[2] = test system: ACHN renal
[3] = test system: UACC-62 melanoma
[4] = test system: TK-10 renal
[5] = test system: SF-539 CNS
[6] = test system: DU-145 prostate
[7] = test system: SNB-19 CNS
[8] = test system: 786-0 renal
[9] = test system: OVCAR-3 ovarian
[10] = test system: SN12C renal

Row | Compound | TGI [1] | TGI [2] | TGI [3] | TGI [4] | TGI [5] | TGI [6] [µM] | TGI [7] | TGI [8] | TGI [9] | TGI [10] | GI50 [1] | GI50 [2] | GI50 [3] [µM] | GI50 [4] [µM] | GI50 [5] | GI50 [6] [µM] | GI50 [7] | GI50 [8] [µM] | GI50 [9] | GI50 [10]
1 | O=C1CCSC(=S)N1c1ccc(Br)c(Cl)c1 | 62.5 µM | 38.9 µM | 58.7 µM | 78.2 µM | > 100 µM | > 100 | 57.6 µM | 62 µM | > 100 µM | > 100 µM | – | – | – | – | – | – | – | – | – | –
2 | CC(C)=CC(=O)N[C@@H]1CC2CCC3C(CC[C@@]4(C)C3CC[C@@H]4C(C)N(C)C)[C@@]2(C)C[C@@H]1O (stereo partly specified) | 8.88 µM | 32.6 µM | 5.28 µM | 32.3 µM | 3.36 µM | > 100 | 60.4 µM | 14.2 µM | 21.9 µM | > 44.5 µM | 2.53 µM | 6.36 µM | 2.24 | 14.1 | 1.59 µM | 10.7 | 17.8 µM | 4.31 | 5.14 µM | 9.11 µM
3 | Cc1cn([C@H]2C[C@H](O)[C@@H](CO)O2)c(=O)nc1N | > 100 µM | > 100 µM | > 100 µM | > 100 µM | > 100 µM | > 100 | > 100 µM | > 100 µM | > 100 µM | > 100 µM | – | – | – | – | – | – | – | – | – | –
4 | CCCCCCCCCCCC1=NC(C)(C)CN1CC(C)O (stereo unspecified) | 5.05 µM | 21.6 µM | 3.47 µM | 22.7 µM | 3.14 µM | 24 | 25.8 µM | 25.9 µM | 12.7 µM | 20.3 µM | 2.35 µM | 10 µM | 1.78 | 10.3 | 1.67 µM | 11.7 | 12.9 µM | 11.8 | 3.35 µM | 7.26 µM
5 | COc1cc(C(=O)O/N=C(\N)Cc2cccc3ccccc23)cc(OC)c1OC | 7.81 µM | 20.3 µM | 6.73 µM | 35.2 µM | 10.4 µM | 23.7 | 21.6 µM | 26.7 µM | 23.3 µM | 42.3 µM | 2.78 µM | 7.11 µM | 2.49 | 20.7 | 2.97 µM | 11.4 | 8.86 µM | 13.5 | 9.62 µM | 17.4 µM
6 | Oc1ccc(Oc2cnc3cc(Cl)ccc3n2)cc1 | 53.1 µM | > 100 µM | > 100 µM | > 100 µM | > 100 µM | > 100 | > 100 µM | > 100 µM | 38.4 µM | > 100 µM | 20.1 µM | 36.3 µM | 40.9 | > 100 | 49.4 µM | 42.4 | 91.6 µM | 31 | 15.8 µM | 34.2 µM
7 | COc1ccc2c(c1)C(=O)c1c-2c(N2CCN(C(=O)CNCCN(C)C)CC2)nc2ccccc12 | 2.55 µM | 17.4 µM | 3.69 µM | 17.8 µM | 3.03 µM | 13.3 | 19.8 µM | 3.09 µM | 5.76 µM | 7.56 µM | 1.17 µM | 4.65 µM | 2.16 | 4.15 | 1.6 µM | 3.32 | 4.99 µM | 1.48 | 2.01 µM | 2.54 µM
8 | Fc1ccc([C@@H]2CCNC[C@H]2COc2ccc3c(c2)OCO3)cc1 | 18.6 µM | 24 µM | 18.8 µM | 23.8 µM | 25.6 µM | 26.5 | 25.4 µM | 25.7 µM | 22.8 µM | 18.9 µM | 5.51 µM | 10.8 µM | 5.52 | 11.3 | 12.8 µM | 13.1 | 12 µM | 12.3 | 10.5 µM | 5.79 µM
9 | Cc1ccc(-c2cc(-c3ccc(C)cc3)nc(N3CCN(CCNc4ccnc5cc(Cl)ccc45)CC3)n2)cc1 | 9.2 µM | 14.5 µM | 12.6 µM | 8.12 µM | 5.84 µM | 8.5 | 15 µM | 6.95 µM | 3.26 µM | 14.7 µM | 2.21 µM | 6.18 µM | 5.54 | 2.29 | 1.68 µM | 2.06 | 6.51 µM | 1.81 | 1.29 µM | 4.71 µM
10 | O=C1/C(=C/c2ccc(Cl)cc2)CN(C(=O)CCN2CCC(=NO)CC2)C/C1=C\c1ccc(Cl)cc1 | 2.73 µM | 1.56 µM | 1.72 µM | 2.93 µM | 2.55 µM | 2.6 | 2.17 µM | 2.12 µM | 1.78 µM | 1.68 µM | 0.888 µM | 0.557 µM | 0.585 | 1.46 | 1.21 µM | 1.28 | 0.817 µM | 0.786 | 0.628 µM | 0.637 µM
11 | O=C1C(Br)=C(Br)C(=O)c2ccccc21 | > 100 µM and 33.9 µM | 28.4 µM and 14.2 µM | 31.6 µM and 22.7 µM | 32.4 µM and 26.6 µM | 36 µM and 10.6 µM | 33 | 37.9 µM and 17.4 µM | 32.3 µM and 23.5 µM | 32.4 µM and 27.7 µM | 30.2 µM and 17.1 µM | 32.7 µM and 10.6 µM | 15.2 µM and 5.76 µM | – | – | 19.4 µM and 2.82 µM | – | 18.8 µM and 9.17 µM | – | 17.9 µM and 8.34 µM | 16.4 µM and 5.09 µM
12 | O=C(Nc1ccc(Oc2ccc(NC(=O)Nc3ccc([N+](=O)[O-])cc3)cc2)cc1)Nc1ccc([N+](=O)[O-])cc1 | 6.61 µM | > 52.6 µM | 11.1 µM | > 26.7 µM | 20.6 µM | > 100 | > 100 µM | > 36.2 µM | > 30.3 µM | > 84.7 µM | 1.74 µM | 1.92 µM | 1.36 | 2.11 | 3.07 µM | 2.44 | 3.34 µM | 3.15 | 2.12 µM | 2.16 µM
13 | O=C(Cn1c(C(=O)c2ccc(Cl)cc2)nc(-c2ccccc2)c1-c1ccccc1)c1ccc(Cl)cc1 | > 100 µM | > 100 µM | > 100 µM | > 100 µM | > 100 µM | > 100 | > 100 µM | > 100 µM | > 100 µM | > 100 µM | > 100 µM | > 100 µM | > 100 | > 100 | > 100 µM | > 100 | > 100 µM | > 100 | > 100 µM | > 100 µM
